Values of other authors in US20230398240A1, “THERAPEUTIC RADIOLABELLED CONJUGATES AND THEIR USE IN THERAPY” (priority 2020, published 2023).

Legend:
[1] = test system: quiescent endothelial cells; conditions: in vitro

N[C@@H](CCC(=O)N[C@@H](CSCC(=O)Nc1ccc([As](O)O)cc1)C(=O)NCC(=O)O)C(=O)O [GSAO, 4-(N—(S-glutathionylacetyl)amino)phenylarsenous acid]
toxicity to proliferating cells (proliferating cells): toxic to proliferating cells | toxicity to quiescent endothelial cells [1]: nontoxic to quiescent endothelial cells | effect on angiogenesis in vivo (angiogenesis): inhibits angiogenesis in vivo
